Results: article PMC12299463, “Cladolosides of Groups S and T: Triterpene Glycosides from the Sea Cucumber Cladolabes schmeltzii with Unique Sulfation; Human Breast Cancer Cytotoxicity and QSAR” (Marine Drugs, 2025)
Where two headings read alike, the source gives them in different places.

Columns and labels:
[1] = test system: MDA-MB-231 triple-negative breast cancer cells; assay: cells; format: cell-based, human; conditions: for Selectivity Index (SI), MDA-MB-231: ratio of IC50 for healthy (MCF-10A) and MDA-MB-231 cells
[2] = test system: MCF-7 human breast cancer cells; assay: cells; format: cell-based; conditions: for Selectivity Index (SI), MCF-7: ratio of IC50 for healthy (MCF-10A) and MCF-7 cells;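 on all read-outs here: IC50 values, including those behind the selectivity ratio, derive from formazan absorbance at 570 nm, tested in triplicate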
[3] = test system: T-47D human breast cancer cells; assay: cells; format: cell-based; conditions: for Selectivity Index (SI), T-47D: ratio of IC50 for healthy (MCF-10A) and T-47D cells;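 on all read-outs here: cell viability read as absorbance of formazan dye at 570 nm, each experiment run in triplicate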
[4] = test system: human erythrocytes; assay: Hemolytic activity against human erythrocytes; format: cell-based; conditions: for ED50, Erythrocytes (hemolytic activity): 1 h at 37 °C
Description: A total of 450 g of human blood (B(III) Rh+) was used to obtain erythrocytes by centrifuging three times for 5 min with phosphate-buffered saline (PBS) (pH 7.4) at 4 °C on a centrifuge LABOFUGE 400R (Heraeus, Hanau, Germany). Ice-cold PBS (pH 7.4) was used for resuspension of erythrocyte residue to a final optical density of 1.5 at 700 nm. Then, 20 µL of tested compound solutions or control (cucumarioside A0-1 [15]) were added to 180 µL of erythrocyte suspension in V-bottom 96-well plates and incubated for 1 h at 37 °C. After centrifugation (900 g, 10 min, laboratory centrifuge LMC-3000 (Biosan, Riga, Latvia)), 100 µL of supernatant was transferred into new flat plates. The values of erythrocyte lysis were measured on microplate photometer Multiskan FC (Thermo Fisher Scientific, Waltham, MA, USA) at λ = 570 nm as hemoglobin concentration in supernatant. […] All the experiments were carried out in triple repetitions, p < 0.05.

[5] = test system: MCF-10A non-tumor mammary epithelial cell line; assay: in vitro; format: cell-based, human
[6] = MTT assay, MDA-MB-231, read-out: Cytotoxicity, IC50, MDA-MB-231
[7] = MTT assay, MCF-7, read-out: Cytotoxicity, IC50, MCF-7
[8] = MTT assay, T-47D, read-out: Cytotoxicity, IC50, T-47D
[9] = MTT assay, MCF-10A, read-out: Cytotoxicity, IC50, MCF-10A

| Structure (SMILES) | ED50, Erythrocytes (hemolytic activity) [4] | IC50 [1, 6] | IC50 [2, 7] | IC50 [3, 8] | Hemolytic (membranolytic) activity, in words [4] | IC50 [5, 9] | other results |
| --- | --- | --- | --- | --- | --- | --- | --- |
| CO[C@@H]1[C@@H](O)[C@H](O[C@@H]2[C@@H](O)[C@H](O[C@H]3[C@H](O)[C@@H](O)[C@H](O[C@H]4[C@H](O[C@H]5CC[C@]6(C)C7=CCC89C(=O)O[C@@](C)([C@@H](CCC(C)C)OC(C)=O)[C@H]8[C@@H](OC(C)=O)C[C@@]9(C)[C@@H]7CC[C@H]6C5(C)C)OC[C@@H](O)[C@@H]4O)O[C@@H]3C)OC[C@H]2O)O[C@H](CO)[C@H]1O (stereo partly shown) [A1 (5)] | 6.17 ± 0.51 µM | – | – | – | – | – | IC50 [1]: > 20 µM; IC50 [2]: > 20 µM; IC50 [3]: > 20 µM; IC50 [5]: > 20 µM |
| C=C(C)CC[C@@H](OC(C)=O)[C@]1(C)OC(=O)C23CC=C4[C@@H](CC[C@H]5C(C)(C)[C@@H](O[C@@H]6OC[C@@H](O)[C@H](O)[C@H]6O[C@@H]6O[C@H](C)[C@@H](O[C@@H]7OC[C@@H](O)[C@H](O[C@@H]8O[C@H](CO)[C@@H](O)[C@H](OC)[C@H]8O)[C@H]7O)[C@H](O)[C@H]6O)CC[C@]45C)[C@]2(C)C[C@H](OC(C)=O)[C@@H]31 (stereo partly shown) [A2 (6), cladoloside A2] | 2.78 ± 0.32 µM | > 20 µM | > 20 µM | > 20 µM | moderate activity | > 20 µM | – |
| C=C(C)CCC[C@]1(C)OC(=O)C23CC=C4[C@@H](CC[C@H]5C(C)(C)[C@@H](O[C@@H]6OC[C@@H](O)[C@H](O)[C@H]6O[C@@H]6O[C@H](C)[C@@H](O[C@@H]7OC[C@@H](O)[C@H](O[C@@H]8O[C@H](CO)[C@@H](O)[C@H](OC)[C@H]8O)[C@H]7O)[C@H](O)[C@H]6O)CC[C@]45C)[C@]2(C)C[C@H](OC(C)=O)[C@@H]31 (stereo partly shown) [A3 (7), cladoloside A3] | 7.58 ± 0.69 µM | > 20 µM | > 20 µM | > 20 µM | low hemolytic activity | > 20 µM | ED50, Erythrocytes (hemolytic activity) ([4]; listed as cladoloside A3 (7)): 7.58 µM |
| CO[C@@H]1[C@@H](O)[C@H](O[C@@H]2[C@@H](O)[C@H](O[C@H]3[C@H](O)[C@@H](O)[C@H](O[C@H]4[C@H](O[C@H]5CC[C@]6(C)C7=CCC89C(=O)O[C@@](C)(CCC=C(C)C)[C@H]8C(=O)C[C@@]9(C)[C@@H]7CC[C@H]6C5(C)C)OC[C@@H](O)[C@@H]4O)O[C@@H]3C)OC[C@H]2O)O[C@H](CO)[C@H]1O (stereo partly shown) [A4 (8), cladoloside A4] | 13.60 ± 0.70 µM | > 20 µM | > 20 µM | > 20 µM | weakest effect from the series | > 20 µM | – |
| COC1C(O)C(CO)OC(OC2C(O)COC(OC3C(C)OC(OC4C(OC5CCC6(C)C7=CCC89C(=O)OC(C)(CC=CC(C)(C)O)C8C(=O)CC9(C)C7CCC6C5(C)C)OCC(O)C4O)C(O)C3O)C2O)C1O (stereo not shown) [A5 (9), cladoloside A5] | 7.19 ± 0.53 µM | > 20 µM | > 20 µM | > 20 µM | – | > 20 µM | ED50, Erythrocytes (hemolytic activity) ([4]; listed as cladoloside A5 (9)): 7.19 µM |
| C=C(C)CC[C@@H](OC(C)=O)[C@]1(C)OC(=O)C23CC=C4[C@@H](CC[C@H]5C(C)(C)[C@@H](O[C@@H]6OC[C@@H](O)[C@H](O)[C@H]6O[C@@H]6O[C@H](C)[C@@H](O[C@@H]7O[C@H](CO)[C@@H](O)[C@H](O[C@@H]8O[C@H](CO)[C@@H](O)[C@H](OC)[C@H]8O)[C@H]7O)[C@H](O)[C@H]6O)CC[C@]45C)[C@]2(C)C[C@H](OC(C)=O)[C@@H]31 (stereo partly shown) [A6 (10), cladoloside A6] | 3.43 ± 0.22 µM | > 20 µM | > 20 µM | > 20 µM | – | > 20 µM | – |
| C=C(C)CC[C@@H](OC(C)=O)[C@]1(C)OC(=O)C23CC=C4[C@@H](CC[C@H]5C(C)(C)[C@@H](O[C@@H]6OC[C@@H](O[C@@H]7O[C@H](CO)[C@@H](O)[C@H](O[C@@H]8O[C@H](CO)[C@@H](O)[C@H](OC)[C@H]8O)[C@H]7O)[C@H](O)[C@H]6O[C@@H]6O[C@H](C)[C@@H](O[C@@H]7OC[C@@H](O)[C@H](O[C@@H]8O[C@H](CO)[C@@H](O)[C@H](OC)[C@H]8O)[C@H]7O)[C@H](O)[C@H]6O)CC[C@]45C)[C@]2(C)C[C@H](O)[C@@H]31 (stereo partly shown) [C3 (16), cladoloside C3] | 12.10 ± 0.58 µM | – | – | – | – | – | IC50 [1]: > 20 µM; IC50 [2]: > 20 µM; IC50 [3]: > 20 µM; ED50, Erythrocytes (hemolytic activity) ([4]; listed as cladoloside C3 (16)): 12.10 µM; IC50 [5]: > 20 µM |
| CO[C@@H]1[C@@H](O)[C@H](O[C@@H]2[C@@H](O)[C@H](O[C@H]3[C@H](O)[C@@H](O)[C@H](O[C@H]4[C@H](O[C@H]5CC[C@]6(C)C7=CCC89C(=O)O[C@@](C)([C@@H](CCC(C)C)OC(C)=O)[C@H]8[C@@H](OC(C)=O)C[C@@]9(C)[C@@H]7CC[C@H]6C5(C)C)OC[C@@H](O[C@@H]5O[C@H](CO)[C@@H](O)[C@H](O)[C@H]5O)[C@@H]4O)O[C@@H]3C)OC[C@H]2O)O[C@H](CO)[C@H]1O (stereo partly shown) [Cladoloside B1 (11), cladoloside B1] | – | 10.1 ± 1 µM | > 20 µM | 13 ± 1.07 µM | – | > 20 µM | Selectivity Index (SI), MDA-MB-231 [1]: >1.98; Selectivity Index (SI), T-47D [3]: >1.54; ED50, Erythrocytes (hemolytic activity) ([4]; listed as B1 (11)): 0.55 ± 0.04 µM; ED50, Erythrocytes (hemolytic activity) ([4]; listed as cladoloside B1 (11)): 0.55 µM |
| C=C(C)CC[C@@H](OC(C)=O)[C@]1(C)OC(=O)C23CC=C4[C@@H](CC[C@H]5C(C)(C)[C@@H](O[C@@H]6OC[C@@H](O[C@@H]7O[C@H](CO)[C@@H](O)[C@H](O)[C@H]7O)[C@H](O)[C@H]6O[C@@H]6O[C@H](C)[C@@H](O[C@@H]7OC[C@@H](O)[C@H](O[C@@H]8O[C@H](CO)[C@@H](O)[C@H](OC)[C@H]8O)[C@H]7O)[C@H](O)[C@H]6O)CC[C@]45C)[C@]2(C)C[C@H](OC(C)=O)[C@@H]31 (stereo partly shown) [Cladoloside B2 (12), cladoloside B2] | – | 3.92 ± 0.35 µM | 14.5 ± 0.48 µM | 12.5 ± 0.96 µM | high activity | 12.2 ± 1.2 µM | Selectivity Index (SI), MDA-MB-231 [1]: 3.12; Selectivity Index (SI), MCF-7 [2]: 0.84; Selectivity Index (SI), T-47D [3]: 0.98; ED50, Erythrocytes (hemolytic activity) ([4]; listed as B2 (12)): 0.31 ± 0.02 µM; ED50, Erythrocytes (hemolytic activity) ([4]; listed as cladoloside B2 (12)): 0.31 µM |
| CO[C@@H]1[C@@H](O)[C@H](O[C@@H]2[C@@H](O)[C@H](O[C@@H]3CO[C@@H](O[C@H]4CC[C@]5(C)C6=CCC78C(=O)O[C@@](C)([C@@H](CCC(C)C)OC(C)=O)[C@H]7[C@@H](OC(C)=O)C[C@@]8(C)[C@@H]6CC[C@H]5C4(C)C)[C@H](O[C@@H]4O[C@H](C)[C@@H](O[C@@H]5OC[C@@H](O)[C@H](O[C@@H]6O[C@H](CO)[C@@H](O)[C@H](OC)[C@H]6O)[C@H]5O)[C@H](O)[C@H]4O)[C@H]3O)O[C@H](CO)[C@H]2O)O[C@H](CO)[C@H]1O (stereo partly shown) [Cladoloside C1 (14), cladoloside C1] | – | 15.3 ± 0.71 µM | > 20 µM | > 20 µM | – | > 20 µM | ED50, Erythrocytes (hemolytic activity) ([4]; listed as C1 (14)): 0.15 ± 0.02 µM; ED50, Erythrocytes (hemolytic activity) ([4]; listed as cladoloside C1 (14)): 0.15 µM |
| C=C(C)CC[C@@H](OC(C)=O)[C@]1(C)OC(=O)C23CC=C4[C@@H](CC[C@H]5C(C)(C)[C@@H](O[C@@H]6OC[C@@H](O[C@@H]7OC[C@@H](O)[C@H](O[C@@H]8O[C@H](CO)[C@@H](O)[C@H](O)[C@H]8O)[C@H]7O)[C@H](O)[C@H]6O[C@@H]6O[C@H](C)[C@@H](O[C@@H]7OC[C@@H](O)[C@H](O[C@@H]8O[C@H](CO)[C@@H](O)[C@H](OC)[C@H]8O)[C@H]7O)[C@H](O)[C@H]6O)CC[C@]45C)[C@]2(C)C[C@H](OC(C)=O)[C@@H]31 (stereo partly shown) [Cladoloside D (18), Cladoloside D] | 0.29 µM | 2.98 ± 0.24 µM | 15.3 ± 0.94 µM | 14.9 ± 0.85 µM | high activity | > 20 µM | Selectivity Index (SI), MDA-MB-231 [1]: >6.7; Selectivity Index (SI), MCF-7 [2]: >1.31; Selectivity Index (SI), T-47D [3]: >1.34; ED50, Erythrocytes (hemolytic activity) ([4]; listed as D (18)): 0.29 ± 0.03 µM; Toxicity to normal mammary cells MCF-10A, in words ([5]; MCF-10A): non-toxic |
